This passage reports ED₅₀ and IC50 results from EP0407137B1, “Benzazine compounds and pharmaceutical uses thereof” (priority 1989, dated 1991).

In one assay the test system is 5-HT₃ receptor. Put plainly: Antagonistic effect against von Bezold-Jarish reflex caused by serotonin in anesthetized rats. Format: in vivo, Male Wistar rats. The conditions noted are these: i.v., 5 minutes before serotonin (20 µg/kg i.v.), dose required to antagonize the reflex bradycardia by 50%. How it is done:
5-HT₃ receptor blocking effects of the compounds of the present invention were evaluated based on the antagonistic effects against van Bezold-Jarish reflex caused by administering serotonin to anesthetized rats as an index according to Forzard's method described in Naunyuschmiedeberg's Arch. Pharmacol., vol.326, pp36, 1984.
Male Wistar rats weighing 350-450 g were anesthetized with an intraperitoneal injection of 1.25g/kg of urethane. The left jugular vein was cannulated for the intravenous injection and the left femoral […] was cannulated for the measurement of blood pressure and heart rate. Serotonin (20 µg/kg) was intravenously injected, and the compounds of the present invention were intravenously injected 5 minutes before the challenge with serotonin. The antagonistic activity of the compounds of the present invention against the caused reflex bradycardia was measured and the effective dose (ED₅₀, µg/kg), the dose required to antagonize the maximum activity by 50%, was determined.

In another assay the target is T1, dopamine D₂ receptor (Rattus norvegicus, UniProt P61169).
T1 construct: Crude synaptosome fraction was separated from corpus striatum of 9 to 10 weeks-aged Wistar rats; from tissue; host or cells: rat corpus striatum, crude synaptosome fraction
Put plainly: Dopamine D₂ binding test (tritium Spiperone, crude synaptosome fraction from corpus striatum). Details: species or system Wistar rats. Particulars: tritium Spiperone 0.2 nM, 37°C for 20 minutes, rat corpus striatum synaptosomes; read-out: Dopamine D₂ binding test IC₅₀. How it is done: Crude synaptosome fraction was separated from corpus striatum of 9 to 10 weeks-aged Wistar rats and suspended into 50 mM tris-hydrochloric acid buffer solution (pH 7.1) containing 120 mM sodium chloride, 5 mM potassium chloride, 2 mM calcium chloride, 1 mM magnesium chloride, 10 µM pargyline and 0.1% ascorbic acid. Next, to the resulting synaptosome suspension were added the test compound of the present invention at several concentrations and tritium Spiperone at the terminal concentration of 0.2 nM, and the mixture was allowed to react at 37°C for 20 minutes. After completion of the reaction, the reaction mixture was suction filtered through Whatman GF/B glass filter. The glass filter was washed with 50 mM tris-hydrochloric acid buffer solution (pH 7.7), and then the radioactivity of the residue remaining on the glass filter was measured by liquid scintillation counter. Non-specific binding was determined under the presence of […]. 50% Inhibition concentration (IC₅₀) of the test compound was graphically determined.

The target of assay [1] is T2, serotonin 1A (5-HT1A) receptor (Rattus norvegicus, UniProt P19327).
T2 sequence (P19327 1-422): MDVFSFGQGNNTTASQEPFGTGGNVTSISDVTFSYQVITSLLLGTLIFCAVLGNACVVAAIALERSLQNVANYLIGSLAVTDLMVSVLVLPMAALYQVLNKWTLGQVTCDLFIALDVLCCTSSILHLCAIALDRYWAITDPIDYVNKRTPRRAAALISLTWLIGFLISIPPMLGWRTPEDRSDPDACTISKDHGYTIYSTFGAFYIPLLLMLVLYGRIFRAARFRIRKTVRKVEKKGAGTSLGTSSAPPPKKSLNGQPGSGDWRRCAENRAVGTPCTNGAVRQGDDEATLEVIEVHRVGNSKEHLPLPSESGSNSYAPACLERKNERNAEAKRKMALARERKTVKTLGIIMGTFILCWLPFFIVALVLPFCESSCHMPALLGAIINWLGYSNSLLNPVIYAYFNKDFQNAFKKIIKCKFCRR
Kind of assay: Serotonin binding test (tritium 8-OH-DPAT, crude synaptosome fraction from hippocampus). Details: species or system Wistar rat. Particulars: tritium 8-OH-DPAT 0.2 nM, 37°C for 12 minutes, rat hippocampus synaptosomes; read-out: Serotonin binding test IC₅₀. On the procedure: Specific serotonin 1A (5-HT1A) receptor binding test was conducted in accordance with the manner described in Journal of the Neurochemistry, vol.44, page 1685, 1985.
Crude synaptosome fraction was separated from hippocampus of 9 to 10 weeks-aged Wistar rat and suspended into 50 mM tris-hydrochloric acid buffer solution (pH 7.4) containing 1 mM manganese chloride.
Next, to the resulting synaptosome suspension were added the test compound of the present invention at several concentrations and tritium 8-OH-DPAT at the terminal concentration of 0.2 nM, and the mixture was allowed to react at 37°C for 12 minutes. After completion of the reaction, the reaction mixture was suction filtered through Whatman GF/B glass filter. The glass filter was washed with 50 mM tris-hydrochloric acid buffer solution (pH 7.4), and then the radioactivity of the residue remaining on the glass filter was measured by liquid scintillation counter. Non-specific binding was determined under the presence of 10⁻⁵M serotonin (5-HT). 50% Inhibition concentration (IC₅₀) of test compound was graphically determined.

Counter-ions that a name gives are not always drawn.

T1 sequence (P61169 whole entry): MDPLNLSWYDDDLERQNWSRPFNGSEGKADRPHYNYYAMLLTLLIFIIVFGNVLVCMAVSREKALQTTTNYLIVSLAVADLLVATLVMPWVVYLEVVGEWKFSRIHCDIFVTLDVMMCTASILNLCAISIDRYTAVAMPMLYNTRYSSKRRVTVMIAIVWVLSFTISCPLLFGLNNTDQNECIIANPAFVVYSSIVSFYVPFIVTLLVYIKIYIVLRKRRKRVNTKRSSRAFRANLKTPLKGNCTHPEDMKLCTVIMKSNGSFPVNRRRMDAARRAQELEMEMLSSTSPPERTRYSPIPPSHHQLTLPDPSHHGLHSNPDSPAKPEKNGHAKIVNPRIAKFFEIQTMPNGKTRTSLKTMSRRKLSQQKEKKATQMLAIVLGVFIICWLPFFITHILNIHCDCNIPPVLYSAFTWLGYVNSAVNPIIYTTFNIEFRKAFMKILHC

With `CN1CC(C)(C)Oc2c(C(=O)NC3CN4CCC3CC4)cc(Cl)cc21.Cl` (centres unmarked) [Example 3, 6-chloro-2,2,4-trimethyl-N-(3-quinuclidinyl)-3,4-dihydro-2H-1,4-benzoxazine-8-carboxamide hydrochloride], the ED₅₀ in the assay on 5-HT₃ receptor was 0.12 µg/kg.

In turn, `CN1CC(C)(C)Oc2c(C(=O)N[C@H]3CN4CCC3CC4)cc(Cl)cc21.Cl` [Example 4, (R)-6-chloro-2,2,4-trimethyl-N-(3-quinuclidinyl)-3,4-dihydro-2H-1,4-benzoxazine-8-carboxamide hydrochloride] returned an ED₅₀ in the assay with 5-HT₃ receptor of 0.17 µg/kg.

Turning to `CCCCN1CCC[C@@H]1CNC(=O)c1cc(Cl)cc2c1OCCN2C` [Example 39, (R)-(+)-N-[(1-butyl-2-pyrrolidinyl)methyl]-6-chloro-4-methyl-3,4-dihydro-2H-1,4-benzoxazine-8-carboxamide], the values for the IC50 (on dopamine D₂ receptor; in assay [1]) were 0.63 µM and 0.42 µM, respectively.

In the case of `CCCCCCCCCN1CCC[C@@H]1CNC(=O)c1cc(Cl)cc2c1OCCN2C` [Example 38, (R)-(+)-6-chloro-4-methyl-N-[(1-nonyl-2-pyrrolidinyl)methyl]-3,4-dihydro-2H-1,4-benzoxazine-8-carboxamide], the values for the IC50 (on dopamine D₂ receptor; in assay [1]) were 0.69 µM and 0.024 µM, respectively.

On to `CCCCN1CCCC1CNC(=O)c1cc(Cl)cc2c1OCCN2C` (centres unmarked) [Example 14, 6-chloro-4-methyl-N-[(1-butyl-2-pyrrolidinyl)-methyl]-3,4-dihydro-2H-1,4-benzoxazine-8-carboxamide hydrochloride], for which the IC50 in assay [1] worked out at 0.062 µM.

`CN1CCOc2c(C(=O)NC3CN4CCC3CC4)cc(Cl)cc21.Cl` (centres unmarked) [Example 1, 6-chloro-4-methyl-N-(3-quinuclidinyl)-3,4-dihydro-2H-1,4-benzoxazine-8-carboxamide hydrochloride]: the ED₅₀ in the assay on 5-HT₃ receptor stood at 0.28 µg/kg.

Turning to `CCN1CCCC1CNC(=O)c1cc(Cl)cc2c1OCCN2C` (centres unmarked) [Example 13, 6-chloro-4-methyl-N-[(1-ethyl-2-pyrrolidinyl)methyl]-3,4-dihydro-2H-1,4-benzoxazine-8-carboxamide hydrochloride], the IC50 in assay [1] turned out to be 0.75 µM.

As to `CN1CCOc2c(C(=O)N[C@H]3CN4CCC3CC4)cc(Cl)cc21` [Example 7, (R)-6-chloro-4-methyl-N-(3-quinuclidinyl)-3,4-dihydro-2H-1,4-benzoxazine-8-carboxamide], the ED₅₀ in the assay with 5-HT₃ receptor is 0.73 µg/kg.

Consider `CN1CC(C)(C)Oc2c(C(=O)N[C@@H]3CN4CCC3CC4)cc(Cl)cc21.Cl` [Example 5, (S)-6-chloro-2,2,4-trimethyl-N-(3-quinuclidinyl)-3,4-dihydro-2H-1,4-benzoxazine-8-carboxamide hydrochloride], for which the ED₅₀ in the assay on 5-HT₃ receptor came out at 0.11 µg/kg.
